Assay results published in patent publication US20060079453A1, “Hla binding peptides and their uses” (priority 2002, published 2006).
Read-outs that look alike come from different tables or passages of the source. No end group written: not given here.

Tests used:
Assay in all cases: biochemical
Format in all cases: binding
[1] = target: HLA-DR DRB1*0401 (DR4) (Homo sapiens, UniProt P01903+P01911, A100K/A169T/F76Y/I96L/K127E/L162R/M171V/N62H/P40V/Q125Y/R42H/S133A/S149N/S66Y/V115G/V209L/W38E)
[2] = target: HLA-DR DRB1*0405 (DR4) (Homo sapiens, UniProt P01903+P01911, A100R/A169T/D86S/F76Y/I96L/K127E/L162R/M171V/N62H/P40V/Q125Y/R42H/S133A/S149N/S66Y/V115G/V209L/W38E)
[3] = target: HLA-DR DRB1*0701 (DR7) (Homo sapiens, UniProt P01903+P01911, A100R/A102G/A103Q/D57E/D86V/E43K/F76Y/K127E/L162R/M171V/P40G/Q125H/Q99D/R33Q/R42Y/R54Q/S133A/S66F/T210M/V115G/Y107V/Y59L/Y89S)
[4] = target: HLA-DR DRB1*0301 (DR3) (Homo sapiens, UniProt P01903+P01911, A100K/A102G/A103R/A169T/F55Y/I96L/K41T/L162R/M171V/P40S/Q125H/Q178H/Q39Y/R42S/S66N/T106N/T262R/W38E/Y61H)
[5] = target: HLA-DR DRB1*0901 (DR9) (Homo sapiens, UniProt P01903+P01911, A100R/A103E/D57H/D86V/F55Y/F60I/F76Y/I96F/K127E/L162R/M171V/P40D/Q125H/Q99R/R33Q/R42F/S133A/S66N/T210M/V115G/W38K/Y107V/Y59G/Y89S)
[6] = target: HLA-DR DRB1*0101 (DR1) (Homo sapiens, UniProt P01903+P01911, A100R/D57E/F55L/F60I/F76Y/I96L/L162R/M171V/P40L/Q125E/R42F/V115G/Y59C)
[7] = target: HLA-DR DRB1*0802 (DR8) (Homo sapiens, UniProt P01903+P01911, A100R/A103L/A169T/F76Y/H45Y/I96F/K41T/L162R/M171V/P40S/Q125H/Q178H/Q39Y/Q99D/R218S/R42G/S66Y/V115G/W38E)
[8] = target: HLA-DR DRB5*0101 (DR51) (Homo sapiens, UniProt P01903+Q30154)
[9] = target: HLA-DR DRB4*0101 (DR53) (Homo sapiens, UniProt P01903+P13762, G164S)
[10] = target: HLA-DR DRB1*1101 (DR11) (Homo sapiens, UniProt P01903+P01911, A100R/A169T/A87E/I96F/K41T/L162R/M171V/P40S/Q125H/Q178H/Q39Y/Q99D/R42S/S66Y/T262R/V115G/W38E)
[11] = target: HLA-DR DRB1*1302 (DR13) (Homo sapiens, UniProt P01903+P01911, A100E/A169T/K41T/L162R/M171V/P40S/Q125H/Q178H/Q39Y/Q99D/R42S/S66N/T262R/V115G/W38E/Y61H)
[12] = target: HLA-DR DRB1*1501 (DR15) (Homo sapiens, UniProt P01903+P01911)

Chain of HLA-DR DRB1*1302 (DR13) (P01903 26-254 limits assumed, other chains not shown): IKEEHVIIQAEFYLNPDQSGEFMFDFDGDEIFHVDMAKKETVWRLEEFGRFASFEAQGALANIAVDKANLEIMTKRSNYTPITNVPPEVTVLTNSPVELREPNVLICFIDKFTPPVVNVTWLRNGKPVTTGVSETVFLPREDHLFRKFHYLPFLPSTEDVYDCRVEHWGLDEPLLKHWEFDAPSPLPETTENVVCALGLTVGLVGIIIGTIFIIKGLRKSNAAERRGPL
Chain of HLA-DR DRB1*0301 (DR3) (P01903 26-254 limits assumed, other chains not shown): as above
Chain of HLA-DR DRB1*1101 (DR11) (P01903 26-254 limits assumed, other chains not shown): as above

| Molecule | IC50 [1] | IC50 [2] | IC50 [3] | IC50 [4] | IC50 [5] | IC50 [6] | IC50 [7] | IC50 ([1]; DRB1 *0401) | IC50 ([2]; DRB1 *0405) | IC50 ([3]; DRB1 *0701) | IC50 ([8]; DRB5 *0101) | IC50 ([5]; DRB1 *0901) | IC50 ([9]; DRB4 *0101) | IC50 ([6]; DRB1 *0101) | IC50 ([10]; DRB1 *1101) | IC50 ([11]; DRBI *1302) | IC50 ([12]; DRBI *1501) | IC50 [9] | IC50 [10] | IC50 [11] | also measured |
| --- | --- | --- | --- | --- | --- | --- | --- | --- | --- | --- | --- | --- | --- | --- | --- | --- | --- | --- | --- | --- | --- |
| CC[C@H](C)[C@H](NC(=O)[C@H](CCCCN)NC(=O)[C@H](CC(N)=O)NC(=O)[C@@H](NC(=O)[C@@H](NC(=O)[C@H](CC(C)C)NC(=O)[C@@H](NC(=O)[C@H](CO)NC(=O)[C@H](CC(C)C)NC(=O)[C@H](C)N)[C@@H](C)O)C(C)C)C(C)C)C(=O)N[C@@H](CCCNC(=N)N)C(=O)NCC(=O)N[C@H](C(=O)N[C@@H](Cc1ccccc1)C(=O)N[C@@H](CCCCN)C(=O)O)[C@@H](C)O | 648 nM | 3630 nM | 396 nM | 274 nM | 18000 nM | 75 nM | 20 nM | – | – | – | – | – | – | – | – | – | – | – | – | – | – |
| CC[C@H](C)[C@H](NC(=O)[C@H](CCC(=O)O)NC(=O)[C@@H](NC(=O)[C@H](Cc1ccc(O)cc1)NC(=O)[C@H](CCC(=O)O)NC(=O)[C@@H](N)CCC(=O)O)C(C)C)C(=O)N[C@@H](CCCNC(=N)N)C(=O)N[C@@H](CCC(N)=O)C(=O)N[C@H](C(=O)NCC(=O)N[C@@H](CC(=O)O)C(=O)N[C@@H](Cc1ccccc1)C(=O)N[C@@H](Cc1c[nH]cn1)C(=O)O)C(C)C | – | – | – | 74900 nM | – | – | 13900 nM | > 5370 nM | 26 nM | 11300 nM | 9750 nM | 11200 nM | 2060 nM | > 1960 nM | 4680 nM | > 1900 nM | 2060 nM | – | – | – | – |
| CC[C@H](C)[C@H](NC(=O)[C@H](CCCCN)NC(=O)[C@H](CC(N)=O)NC(=O)[C@@H](NC(=O)[C@@H](NC(=O)[C@H](CC(C)C)NC(=O)[C@@H](NC(=O)[C@H](CO)NC(=O)[C@H](CC(C)C)NC(=O)[C@H](C)NC(=O)[C@H](CCC(=O)O)NC(=O)CN)[C@@H](C)O)C(C)C)C(C)C)C(=O)N[C@@H](CCCNC(=N)N)C(=O)NCC(=O)N[C@H](C(=O)O)[C@@H](C)O | – | 30100 nM | – | 29700 nM | 40800 nM | – | 383 nM | – | – | – | 108 nM | – | – | – | – | – | – | 1510 nM | 977 nM | 55 nM | – |
| CC[C@H](C)[C@H](N)C(=O)N[C@@H](C)C(=O)NCC(=O)N[C@@H](CC(C)C)C(=O)N[C@@H](Cc1ccccc1)C(=O)N[C@@H](CC(C)C)C(=O)N[C@H](C(=O)N[C@H](C(=O)N[C@@H](CCC(=O)O)C(=O)N[C@@H](C)C(=O)N[C@H](C(=O)N[C@H](C(=O)N[C@@H](C)C(=O)N[C@@H](CC(=O)O)C(=O)N[C@@H](CCCCN)C(=O)O)C(C)C)C(C)C)[C@@H](C)O)[C@@H](C)O | 13 nM | 67 nM | 230 nM | – | 409 nM | 6.8 nM | 3890 nM | – | – | – | – | – | – | – | – | – | – | > 26400 nM | 867 nM | > 10300 nM | IC50 [12]: > 50800 nM |
| CC(C)C[C@H](N)C(=O)N[C@@H](CCC(=O)O)C(=O)N1CCC[C@H]1C(=O)N[C@@H](Cc1c[nH]c2ccccc12)C(=O)N[C@@H](CC(N)=O)C(=O)N[C@@H](Cc1c[nH]cn1)C(=O)N1CCC[C@H]1C(=O)NCC(=O)N[C@@H](CO)C(=O)N[C@@H](CCC(N)=O)C(=O)N1CCC[C@H]1C(=O)N[C@@H](CCCCN)C(=O)N[C@H](C(=O)N[C@@H](C)C(=O)N[C@@H](CS)C(=O)N[C@H](C(=O)O)[C@@H](C)O)[C@@H](C)O | > 33300 nM | > 8230 nM | > 72300 nM | > 328000 nM | 34500 nM | > 33600 nM | 69200 nM | – | – | – | – | – | – | – | – | – | – | 92 nM | > 15300 nM | > 11000 nM | IC50 [8]: 2940 nM |
| CC[C@H](C)[C@H](NC(=O)CNC(=O)[C@H](CC(C)C)NC(=O)CNC(=O)[C@H](CCCCN)NC(=O)[C@@H](NC(=O)[C@@H](NC(=O)[C@H](Cc1ccccc1)NC(=O)[C@H](CS)NC(=O)[C@@H](NC(=O)[C@@H](N)CCC(N)=O)C(C)C)[C@@H](C)CC)[C@@H](C)O)C(=O)N[C@@H](CO)C(=O)N[C@@H](Cc1ccc(O)cc1)C(=O)NCC(=O)N[C@@H](CCCNC(=N)N)C(=O)O | – | – | – | 167000 nM | – | – | 41 nM | – | 295 nM | 91 nM | 3950 nM | – | 876 nM | – | 31 nM | 92 nM | 3550 nM | – | – | – | – |
| ALSTLVLNRLKVGLQ | – | – | – | – | – | – | 4 nM | 517 nM | 2170 nM | 647 nM | 3.9 nM | 2170 nM | 17 nM | 49 nM | 9.1 nM | 4.6 nM | 191 nM | – | – | – | – |
| ALWRVSAEEY | – | – | – | > 76600 nM | – | – | 4100 nM | 6540 nM | > 35300 nM | 7950 nM | > 35600 nM | 698 nM | > 7930 nM | > 6340 nM | 243 nM | > 6400 nM | > 15300 nM | – | – | – | – |
| AYVLLSEKKISSIQS | – | – | – | – | – | – | 27 nM | 943 nM | 9470 nM | 3850 nM | 4520 nM | 3340 nM | 902 nM | 78 nM | 51 nM | 816 nM | 489 nM | – | – | – | – |
